# Test: logP determination by HPLC (EEC directive 79/831 Annex V. A8)
# Assay type: physicochemical
# Conditions: HPLC gradient method, acetonitrile/0.1% aqueous phosphoric acid; Table 1
# Method: *) The logP values were determined in accordance with EEC directive 79/831 Annex V. A8 by HPLC (gradient method, acetonitrile/0.1% aqueous phosphoric acid)
row,Structure (SMILES),logP*
1,CC(C)ONc1c(-c2ccccc2F)c(Cl)nc2ncnn12 [Example 98],2.42
2,N#CCCNNc1c(-c2ccccc2F)c(Cl)nc2ncnn12 [Example 94],1.82
3,CC(C)(C)ONc1c(-c2c(F)cc(F)cc2F)c(Cl)nc2ncnn12 [Example 43],2.75
4,CC(C)(C)NNc1c(-c2c(F)cc(F)cc2F)c(Cl)nc2ncnn12 [Example 21],2.86
5,CC(C)CN(N)c1c(-c2cc(C(F)(F)F)ccc2C(F)(F)F)c(Cl)nc2ncnn12 [Example 137],3.57
6,Fc1cccc(F)c1-c1c(Cl)nc2ncnn2c1NOCc1ccccc1Cl [Example 106],3.07
7,CC(C)N(N)c1c(-c2c(F)cc(F)cc2F)c(Cl)nc2ncnn12 [Example 133],2.62
8,Fc1cc(F)c(-c2c(Cl)nc3ncnn3c2NOCc2ccccc2)c(F)c1 [Example 12],2.92
9,NN(CC1CCC1)c1c(-c2c(F)cc(F)cc2F)c(Cl)nc2ncnn12 [Example 169],3.06
10,CC(=NNc1c(-c2c(F)cc(F)cc2F)c(Cl)nc2ncnn12)C(F)(F)F [Example 165],3.07
11,Fc1ccc(CONc2c(-c3ccccc3F)c(Cl)nc3ncnn23)cc1 [Example 62],2.82
12,Fc1cc(F)c(-c2c(Cl)nc3ncnn3c2NOCc2c(Cl)cccc2Cl)c(F)c1 [Example 86],3.32
13,Fc1cc(F)c(-c2c(Cl)nc3ncnn3c2NOCc2cccc(Cl)c2)c(F)c1 [Example 82],3.27
14,C=CCONc1c(-c2c(F)cc(F)cc2F)c(Cl)nc2ncnn12 [Example 42],2.48
15,CCC(C)NNc1c(-c2cccc(C(F)(F)F)c2Cl)c(Cl)nc2ncnn12 (stereo not shown) [Example 145],3.37
16,CCC(C)N(N)c1c(-c2cc(C(F)(F)F)ccc2Cl)c(Cl)nc2ncnn12 (stereo not shown) [Example 148],3.53
17,CONc1c(-c2c(F)cccc2F)c(Cl)nc2ncnn12 [Example 32],1.92
18,CCONc1c(-c2c(F)cccc2F)c(Cl)nc2ncnn12 [Example 102],2.18
19,Fc1cccc(F)c1-c1c(Cl)nc2ncnn2c1NOCc1ccc(Cl)cc1 [Example 47],3.14
20,Fc1cc(F)c(-c2c(Cl)nc3ncnn3c2NNCC(F)(F)C(F)F)c(F)c1 [Example 29],2.58
21,Fc1ccc(CONc2c(-c3c(F)cccc3F)c(Cl)nc3ncnn23)cc1 [Example 107],2.86
22,OCCNNc1c(-c2c(F)cc(F)cc2F)c(Cl)nc2ncnn12 [Example 33],1.68
23,Fc1cccc(F)c1-c1c(Cl)nc2ncnn2c1NOCc1cccc(Cl)c1 [Example 46],3.12
24,Fc1ccccc1-c1c(Cl)nc2ncnn2c1NOCc1c(Cl)cccc1Cl [Example 101],3.3
25,Fc1cccc(F)c1-c1c(Cl)nc2ncnn2c1NOCc1ccccc1 [Example 103],2.8
26,CCC(C)ONc1c(-c2c(F)c(F)c(F)c(F)c2F)c(Cl)nc2ncnn12 (stereo not shown) [Example 73],3.33
27,NN(c1c(-c2c(F)cc(F)cc2F)c(Cl)nc2ncnn12)C1CCCC1 [Example 130],3.07

row,Structure (SMILES),logP*
1,Fc1cccc(F)c1-c1c(Cl)nc2ncnn2c1NOCc1ccc(C(F)(F)F)cc1 [Example 105],3.32
2,Fc1cc(F)c(-c2c(Cl)nc3ncnn3c2NOCc2cc(Cl)cc(Cl)c2)c(F)c1 [Example 80],3.73
3,CC(C)CN(N)c1c(-c2c(Cl)c(F)cc(C(F)(F)F)c2Cl)c(Cl)nc2ncnn12 [Example 126],2.58
4,Fc1ccc(CONc2c(-c3c(F)cc(F)cc3F)c(Cl)nc3ncnn23)cc1 [Example 83],2.99
5,CCC(C)N(N)c1c(-c2cccc(C(F)(F)F)c2Cl)c(Cl)nc2ncnn12 (stereo not shown) [Example 144],3.44
6,CCONc1c(-c2c(F)c(F)c(F)c(F)c2F)c(Cl)nc2ncnn12 [Example 70],2.73
7,CNN(C)c1c(-c2ccccc2F)c(Cl)nc2ncnn12 [Example 88],2.13
8,Fc1ccccc1-c1c(Cl)nc2ncnn2c1NOC1CCCCO1 (stereo not shown) [Example 66],2.46
9,CC(C)CN(N)c1c(-c2c(F)cccc2F)c(Cl)nc2ncnn12 [Example 170],2.72
10,CC(C)(C)ONc1c(-c2ccccc2F)c(Cl)nc2ncnn12 [Example 65],2.58
11,C=CCONc1c(-c2ccccc2F)c(Cl)nc2ncnn12 [Example 64],2.27
12,Fc1c(F)c(F)c(-c2c(Cl)nc3ncnn3c2NOCc2c(Cl)cccc2Cl)c(F)c1F [Example 120],3.65
13,CN(O)c1c(-c2c(F)cc(F)cc2F)c(Cl)nc2ncnn12 [Example 123],1.99
14,COCCN(N)c1c(-c2c(F)cc(F)cc2F)c(Cl)nc2ncnn12 [Example 128],2.26
15,Fc1cc(F)c(-c2c(Cl)nc3ncnn3c2NOCc2ccc(OC(F)(F)F)cc2)c(F)c1 [Example 11],3.54
16,CCCN(N)c1c(-c2c(F)cc(F)cc2F)c(Cl)nc2ncnn12 [Example 20],2.58
17,CCCCONc1c(-c2ccccc2F)c(Cl)nc2ncnn12 [Example 100],2.85
18,Fc1cc(F)c(-c2c(Cl)nc3ncnn3c2NNC2CCCC2)c(F)c1 [Example 55],2.98
19,Fc1ccccc1-c1c(Cl)nc2ncnn2c1NOCc1ccccc1 [Example 95],2.83
20,CNN(C)c1c(-c2c(F)cc(F)cc2F)c(Cl)nc2ncnn12 [Example 18],2.33
21,CCC(C)ONc1c(-c2ccccc2F)c(Cl)nc2ncnn12 (stereo not shown) [Example 63],2.69
22,CC(C)CONc1c(-c2c(F)cc(F)cc2F)c(Cl)nc2ncnn12 [Example 79],3
23,CCOC(=O)NN(CC(C)C)c1c(-c2c(F)cc(F)cc2F)c(Cl)nc2ncnn12 [Example 168],2.99
24,Fc1c(F)c(F)c(-c2c(Cl)nc3ncnn3c2NOCc2cccc(C(F)(F)F)c2)c(F)c1F [Example 118],3.72
25,CONc1c(-c2ccccc2F)c(Cl)nc2ncnn12 [Example 67],1.89
26,Fc1cc(F)c(-c2c(Cl)nc3ncnn3c2NOC2CCCC2)c(F)c1 [Example 14],2.94
27,Fc1cc(F)c(-c2c(Cl)nc3ncnn3c2NOCc2ccc(C(F)(F)F)cc2)c(F)c1 [Example 10],3.38

row,Structure (SMILES),logP*
1,CN(C)Nc1c(-c2ccccc2F)c(Cl)nc2ncnn12 [Example 87],2.26
2,CCN(N)c1c(-c2c(F)cc(F)cc2F)c(Cl)nc2ncnn12 [Example 17],2.27
3,CC(C)(O)CNNc1c(-c2c(F)cc(F)cc2F)c(Cl)nc2ncnn12 [Example 53],2.09
4,Fc1c(F)c(F)c(-c2c(Cl)nc3ncnn3c2NOCc2cc(Cl)cc(Cl)c2)c(F)c1F [Example 113],4.07
5,NN(CCN1CCOCC1)c1c(-c2c(F)cc(F)cc2F)c(Cl)nc2ncnn12 [Example 129],1.1
6,C=CCONc1c(-c2c(F)c(F)c(F)c(F)c2F)c(Cl)nc2ncnn12 [Example 74],2.89
7,Fc1ccc(CONc2c(-c3c(F)c(F)c(F)c(F)c3F)c(Cl)nc3ncnn23)cc1 [Example 72],3.3
8,CC=NN(CC1CC1(Cl)Cl)c1c(-c2c(F)cc(F)cc2F)c(Cl)nc2ncnn12 (stereo not shown) [Example 167],3.72
9,CONc1c(-c2c(F)cc(F)cc2F)c(Cl)nc2ncnn12 [Example 31],2.12
10,Cc1ccc(CONc2c(-c3c(F)cc(F)cc3F)c(Cl)nc3ncnn23)cc1 [Example 13],3.25
11,Clc1cccc(Cl)c1-c1c(Cl)nc2ncnn2c1NNC1CCCC1 [Example 160],3.21
12,CC(C)CN(N)c1c(-c2c(F)cc(F)cc2F)c(Cl)nc2ncnn12 [Example 131],2.91
13,C=CCONc1c(-c2c(F)cccc2F)c(Cl)nc2ncnn12 [Example 50],2.28
14,CC(C)CNNc1c(-c2c(Cl)c(F)cc(C(F)(F)F)c2Cl)c(Cl)nc2ncnn12 [Example 44],3.89
15,CC(C)CN(N)c1c(-c2c(F)cc(F)cc2F)c(Cl)nc2ncnn12.Cl [Example 153],2.88
16,COC(=O)N(C)Nc1c(-c2ccccc2F)c(Cl)nc2ncnn12 [Example 93],1.8
17,CCONc1c(-c2ccccc2F)c(Cl)nc2ncnn12 [Example 57],2.13
18,CCCCONc1c(-c2c(F)cccc2F)c(Cl)nc2ncnn12 [Example 109],2.83
19,CC(C)=NN(CC1CCCCC1)c1c(-c2c(F)cc(F)cc2F)c(Cl)nc2ncnn12 [Example 26],4.5
20,CC(C)CN(N)c1c(-c2c(Cl)cccc2Cl)c(Cl)nc2ncnn12 [Example 155],3.17
21,Fc1cccc(F)c1-c1c(Cl)nc2ncnn2c1NOCc1c(Cl)cccc1Cl [Example 110],3.2
22,CC(C)CN(N)c1c(-c2ccc(C(F)(F)F)cc2F)c(Cl)nc2ncnn12 [Example 135],3.43
23,CN(O)c1c(-c2c(F)cccc2F)c(Cl)nc2ncnn12 [Example 124],2.19
24,Fc1cc(F)c(-c2c(Cl)nc3ncnn3c2NOCc2cccc(C(F)(F)F)c2)c(F)c1 [Example 84],3.39
25,Fc1c(F)c(F)c(-c2c(Cl)nc3ncnn3c2NOCc2ccc(Cl)cc2)c(F)c1F [Example 71],3.62
26,CC(=O)NN(CC(C)C)c1c(-c2c(F)cc(F)cc2F)c(Cl)nc2ncnn12 [Example 157],2.25

# Same assay, conditions: HPLC gradient method, acetonitrile/0.1% aqueous phosphoric acid; Table 1; read-out: logP*
row,Structure (SMILES),chromatographic logP
1,C=CCNNc1c(-c2c(F)cc(F)cc2F)c(Cl)nc2ncnn12 [Example 24],2.48
2,NN(CC1CCCCC1)c1c(-c2c(F)cc(F)cc2F)c(Cl)nc2ncnn12 [Example 22],3.67

# Same assay, conditions: HPLC; preparation examples; read-out: HPLC: logP
row,Structure (SMILES),chromatographic logP
1,"CC(C)(C)ONc1c(-c2c(F)cccc2F)c(Cl)nc2ncnn12 [Example 2, 7-(tert-butoxyamino)-5-chloro-6-(2,6-difluorophenyl)[1,2,4)triazolo[1,5-a]pyrimidine]",2.59

# Same assay, conditions: Table 2, carbamates of formula (VIII)
row,Structure (SMILES),logP
1,CCOC(=O)N(CC(C)C)OC [Example 178],2.38
2,C=C(C)CN(OC)C(=O)OCC [Example 179],2.06
